In US20150140088A1, “SPIROSTEROID SYSTEMS ACTING AS NEUROPROTECTIVE AND ANTI-INFLAMMATORY AGENTS” (priority 2011, published 2015):

Tested on: PC12 cells exposed to L-glutamate
Test: Anti-glutamatergic effect on PC12 cells exposed to L-glutamate (MTT cellular vitality)
Type: cell-based
Conditions: 10 μM; PC12 cells exposed to L-glutamate (20 mM) for 24 h; result in words
Procedure: PC12 constitute a neuron-like cell line widely employed in several models of neurological diseases. The patophysiological mechanisms which can be simulated in those in vitro models, allows the use of PC12 cells in evaluation of therapeutic candidates.
The synthetic spirosteroids series (10 μM of each molecule) was evaluated on PC12 cells exposed to L-glutamate (20 mM) for 24 h. Previously, those cells were routinely cultivated in RPMI 1640 medium, supplemented with equine serum (10%) and fetal bovine serum (5%) in a 37° C. and 5% CO2 atmosphere. In the beginning of the experiment, cells were seeded in 96-well microplates at a cellular density of 150,000 cells/mL. After 24 h of exposition to glutamatergic damage and spirosteroids treatment, cellular vitality was determined with 3-(4,5-dimethylthiazol-2-yl)-2,5-diphenyltetrazolium bromide (MTT), which is metabolized by mitochondrial deshydrogenases in living cells. […] All molecules of the synthetic spirosteroids series were non cytotoxic at the concentration employed for the in vitro anti-glutamatergic assay (data no shown).

Compound | anti-glutamatergic and neuroprotector effect
C[C@@H]1CC[C@@]2(OC1)O[C@H]1C[C@H]3[C@@H]4CC(=O)C5C[C@H](O)[C@H](O)C[C@]5(C)[C@H]4CC[C@]3(C)[C@H]1[C@@H]2C (stereo partly drawn) [2α,3α-dyhydroxy-(25R)-spirostan-6-one] | most active
C[C@@H]1CC[C@@]2(OC1)O[C@H]1C[C@H]3[C@@H]4CC(=O)C5CC(=O)CC[C@]5(C)[C@H]4CC[C@]3(C)[C@H]1[C@@H]2C (stereo partly drawn) [3,6-dione-(25R)-spirostan] | most active
